Assay results as given in patent US20140179681A1, “METHODS AND COMPOSITIONS OF TARGETED DRUG DEVELOPMENT” (priority 2010, published 2014).
pIC50: −log10 of the molar value. Where a name gives a salt, the structure may show the parent alone. Read-outs that look alike come from different tables or passages of the source.

Key:
[1] = tested on: epithelial carcinoma A431 cell line; test: MTT Cell Proliferation Assay, A431 cells; type: cell-based; conditions: for MTT Assay IC50(A431/MDBK): A431: A431 cells; for MTT assay, % at 2.6 microMolar: cell line not stated
Description: (§1) The following example describes the MTT Cell Proliferation Assay.
(§2) The MTT Cell Proliferation Assay is a colorimetric assay system that measures the reduction of the tetrazolium salt MTT (3-(4,5-dimethylthiazol-2-yl)-2,5-diphenyltetrazolium bromide) into insoluble formazan crystals, produced by the mitochondria of viable cells. […] The color can then be quantified by spectrophotometric means. Among the applications for the method are drug sensitivity, cytotoxicity, response to growth factors, and cell activation. The reduction of tetrazolium salts is now recognized as a safe, accurate alternative to radiometric testing.
(§3) Two replicates on each cell plate and 2 duplicate plates gave 4 individual replicates of each concentration, in each cell line. Concentrations were diluted in 100% DMSO from 25 mM stocks.
(§4) Twelve 96 well plates of each cell line were plated. Plating was done by dislodging cells as in passage protocol, counting on a hemocytometer, re-suspending in standard growth media, and plating using a multichannel pippetor.
(§5) 16 μl of 25 mM stock+34 μl DMSO=8 mM starting concentrations, and serial diluted as with test compounds in same plate. […] Two replicates of each concentrations was run on each cell plate. All compound addition and cell treatments were done using aseptic technique under a laminar flow aseptic hood.
(§6) Control: 0.5% DMSO in treatment media was used as the control.
(§7) MTT dye (Thiazolyl Blue Tetrazolium Bromide, Sigma cat #M5655) stock was prepared in bulk and stored at 4° C. for use: 5 mgs/ml sterile PDS, shielded from light. 4 ul of this stock per 100 uls treatment media per well was used.
(§8) Plates were incubated overnight prior to treatment, with treatment day=Day 0. Compound treatments were prepared prior to washing cells to minimize time cells were dry at room temperature after final aspiration. Compounds were diluted in 100% DMSO in 96 well polypropylene plates: 40 μl 25 mM stock+10 μl DMSO=20 mM; 20 μl of 20 mM+30 μl DMSO=8 mM; 20 μl of 8 mM+30 μl DMSO=3.2 mM; 20 μl of 3.2 mM+30 μl DMSO=1.3 mM; 20 μl of 1.3 mM+30 μl DMSO=0.51 mM.
(§9) 5.0 μl/ml were added to treatment media, in sterile, 2.2 ml deep well plates=0.5% dmso final. Ten μl of each dmso concentration was added to 2.0 ml of treatment media and then mixed using a 1200 μl multichannel pipettor. Cell plates were treated from the deep well plates. Treatment media was standard growth media containing 0.5% FBS and standard additions. This reduced FBS concentration allowed for a slower growth rate in cells.
(§10) Media was aspirated from cell plates, and washed with 200 μl/well sterile PBS. Aspirated PBS wash, and cell plates were treated with 200 μl of compound/treatment media per well, and incubated at 37° C., 5% CO2 for 3 days.
(§11) Prior to harvesting, visual observations were made under an inverted microscope. Plates were harvested by: aspirating the growth media; adding back MTT dye/100 μl treatment media; and incubating plates at 37° C. for 1 hour. MTT dye was aspirated. 100 μl/well dmso was added, and then shaken on a Bellco plate shaker for 5 minutes, at 4.5 setting.
(§12) Plates were read in a Tecan Sunrize UV plate reader, at 560 nm. Settings: Read mode, Outside Normal 2 sec; Shake settle time 3 sec. Data is reported as % inhibition, calculated for individual plates using control values from that plate.

[2] = molecular target: T1, EGFR (Homo sapiens, UniProt P00533); test: EGFR in-cell Western (ICW) screening protocol (EGFR inhibition assay); type: cell-based; design: ICW 1 / ICW 2 / ICW Avg: unit not given here; conditions: for ICW assay: Table 10, % Inhibition of EGF dependent EGFR phosphorylation in A431 cells, compound 125 μM in assay; for ICW Avg / ICW 1 / ICW 2: ICW assay; for ICW Avg: average of runs 1 and 2; for ICW 1: run 1; for ICW 2: run 2
T1 construct: host or cells: A431
Description: The following example describes general EGFR in-cell Western (ICW) screening protocol. Methods are according to Chen et al. (2005) Analytical Biochemistry 338, 136-142 (incorporated herein by reference), except as otherwise noted.
Cell Plates: A431 cells (ATCC # CRL-1555) were grown in Dulbecco's Modified Eagle Medium (DMEM; ATCC #30-2002) supplemented with 10% fetal bovine serum, 105 units/ml pen/strep (Invitrogen #15140155) and 2.1 mM L-glutamine (ATCC #30-2214). Cells were seeded into 96 well tissue culture plates (BD Falcon #353948) at a density of 30,000 cells per well and incubated at 37° C. with 5% CO2 overnight. Two cell plates were prepared for each compound plate.
Serum Starvation: The cells were serum starved prior to compound addition. The media was removed by aspiration and the cells washed with PBS (200 μl/well; Invitrogen #20012-027). The PBS was removed by aspiration and replaced with 200 μl of DMEM (ATCC #30-2002) supplemented with 105 units/ml pen/strep (Invitrogen #15140155) and 2.1 mM 1-glutamine (ATCC #30-2214). The cell plates were incubated at 37° C./5% CO2 for 2 hours.
Compound Plate Preparation: The test compounds were solvated in 100% DMSO (Sigma #472301-2L) at a concentration of 25 mM. Compounds found not to be completely soluble in 100% DMSO at 25 mM were diluted to 10 mM with 100% DMSO and TFA (Fluka #91699) added to a final concentration of 0.2%. 40 μl of test compound was added to the appropriate well of a 96 well plate (Falcon #351190). As controls, 6 μM EGFR kinase inhibitor PD168393 (EMD/Calbiochem #513033) in 100% DMSO and DMSO alone were added to various wells. Prepared compound plates were stored at RT prior to use and at 4° C. long term.
Compound Dilution Plate Preparation: 250 μl of DMEM supplemented with 1 mg/ml BSA (Sigma A3059-10G) was added to the appropriate wells of a 96 well plate to prepare the compound dilution plates. Using a multichannel pipettor, 1.25 μl of compound from the compound plate was transferred into the compound dilution plate.
Compound Addition: The starve media was removed from the cell plates by aspiration. Using a multichannel pipettor, the compound dilution plates were mixed by pipetting up and down three times. 50 μl of mixed, diluted compound was added to each of two rows/columns on each of two cell plates. The cell plates with compound were incubated at 37° C./5% CO2 for 4 hours.
EGF Addition: 20 ng/ml EGF (Upstate #01-107) was prepared in DMEM supplemented with 1 mg/ml BSA. 50 μl of 20 or 0 ng/ml EGF was added to the appropriate wells without the removal of compound. The compound and EGF were mixed by pipetting up and down three times. The plates were incubated at 37° C./5% CO2 for 10 min. In some screening assays the final concentration of EGF used for simulation was 6.6, or 12.5 ng/ml rather than 10 ng/ml.
Fixation and Triton Washing: The EGF+compound was removed by aspiration and 150 μl of freshly prepared Fixation Solution (1×PBS, Sigma P3813-10PK, and 4% Formaldehyde, Pierce #28908) was immediately added. The plates were incubated at RT for 20 min without shaking. The Fixation Solution was removed by aspiration and the plates washed four times with 200 μl each of Triton Wash Solution (1×PBS, Sigma P3813-10PK, and 0.1% Triton X-100, T8787-50ML) for 5 min with gentle shaking.
Blocking and Probing: Following the last Triton Wash, the plates were blocked for 1.5 h at RT with shaking using 150 μl of Odyssey Blocking Buffer (LI-COR #927-40000). The block was removed by aspiration and 50 μl of diluted primary Ab mix was added. The plates were incubated at 4° C. overnight with gentle shaking. The plates were washed five times with 200 μl of PBST (1×PBS, Sigma P3813-10PK, and 0.1% Tween-20, Sigma P9416-50ML) for 5 min each with shaking 50 μl of diluted secondary Ab mix was added and the plates incubated at RT for 1 h with shaking. The plates were washed 5× with 200 μl of PBST for 5 min each with shaking. […]

[3] = tested on: MDBK line; test: MTT Cell Proliferation Assay, MDBK cells; type: cell-based, bovine; conditions: Bos taurus, MDBK, 72 h, Table 10; second of x/y(ratio): MDBK; three day treatment; unit not printed (doses in μM); read-out: MTT assay (second value)
Description: as §1, §2, §3, §4, §5, §6, §7, §8, §9, §10, §11, §12

[4] = first value of 'a/b (c)', taken as A431 cells

T1 sequence (P00533 25-1210): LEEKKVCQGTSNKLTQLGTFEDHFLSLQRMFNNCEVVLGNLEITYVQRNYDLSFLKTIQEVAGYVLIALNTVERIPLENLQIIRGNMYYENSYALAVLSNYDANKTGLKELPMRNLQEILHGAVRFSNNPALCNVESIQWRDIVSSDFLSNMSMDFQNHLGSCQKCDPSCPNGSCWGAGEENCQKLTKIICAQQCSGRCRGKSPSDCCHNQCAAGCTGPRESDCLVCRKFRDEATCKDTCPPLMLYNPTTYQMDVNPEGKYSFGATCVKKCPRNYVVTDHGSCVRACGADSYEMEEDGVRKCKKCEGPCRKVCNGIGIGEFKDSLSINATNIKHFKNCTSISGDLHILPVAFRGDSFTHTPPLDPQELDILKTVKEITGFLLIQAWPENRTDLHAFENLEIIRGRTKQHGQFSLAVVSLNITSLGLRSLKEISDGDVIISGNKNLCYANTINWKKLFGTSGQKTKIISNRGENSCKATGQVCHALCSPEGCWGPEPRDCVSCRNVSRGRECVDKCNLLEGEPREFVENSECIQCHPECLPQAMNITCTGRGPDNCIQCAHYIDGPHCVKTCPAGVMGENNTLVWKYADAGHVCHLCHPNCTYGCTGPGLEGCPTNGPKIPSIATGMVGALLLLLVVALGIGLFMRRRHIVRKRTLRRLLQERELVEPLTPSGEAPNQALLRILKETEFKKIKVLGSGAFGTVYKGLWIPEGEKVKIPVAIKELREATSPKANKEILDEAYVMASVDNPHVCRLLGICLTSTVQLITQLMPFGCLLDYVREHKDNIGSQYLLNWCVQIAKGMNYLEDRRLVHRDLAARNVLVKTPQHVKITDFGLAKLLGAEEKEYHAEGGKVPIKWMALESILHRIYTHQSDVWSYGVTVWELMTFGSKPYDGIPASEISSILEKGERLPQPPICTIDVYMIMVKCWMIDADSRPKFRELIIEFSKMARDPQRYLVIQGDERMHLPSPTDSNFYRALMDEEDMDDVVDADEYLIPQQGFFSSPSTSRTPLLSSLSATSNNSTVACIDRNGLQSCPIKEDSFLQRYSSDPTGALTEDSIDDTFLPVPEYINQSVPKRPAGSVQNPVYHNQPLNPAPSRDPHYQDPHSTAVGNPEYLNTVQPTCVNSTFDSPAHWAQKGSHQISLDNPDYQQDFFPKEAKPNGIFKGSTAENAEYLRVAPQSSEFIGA

Row | MTT Assay IC50(A431/MDBK): A431 ([1]; first value of cell) | ICW Avg [2] | ICW 1 [2] | ICW 2 [2] | ICW Screen (ICW Inhibition) [2] | SMILES | further results
1 | NOT ACTIVE | 73.45 | 82.35 | 64.55 | – | CCCc1cc(=O)[nH]c(Nc2nc(C)c3ccc(OC)cc3n2)n1 [AD4-12652 + TFA] | –
2 | non-convergent | 62.29 | 53.35 | 71.23 | – | CCOc1cccc2c(C)nc(Nc3nc(-c4ccccc4)cc(=O)[nH]3)nc12 [compound 11492] | –
3 | NOT ACTIVE | 72.20 | 70.26 | 74.15 | – | Cc1cc(C)c2nc(NC3=NC(c4ccccc4)CC(=O)N3)nc(C)c2c1 (centres unmarked) [AD4-12641 + TFA] | –

The remaining lines, values behind:

Row | SMILES | MTT Assay IC50(A431/MDBK): A431 ([1]; first value of cell) | ICW Avg [2] | ICW 1 [2] | ICW 2 [2] | ICW Screen (ICW Inhibition) [2] | further results
4 | CCc1ccc(NC(=S)Nc2ccc(S(=O)(=O)Nc3ccc(Cl)c(Cl)c3)cc2)cc1 [AD4-12430] | – | – | – | – | – | IC50 ([1]; Homo sapiens, A-431, 72 h, Table 10, first of x/y(ratio): A431, three day treatment, unit not printed (doses in μM), read-out: MTT assay (first value)): 4.07 µM; ICW assay [2]: 82.0877; IC50 [3]: 5.54 µM
5 | CC(C)C(=O)NC(=S)Nc1ccc(S(=O)(=O)N2CCCC2)cc1 [AD4-11970] | – | – | – | – | 43.246 | MTT Screen, first value of cell [1, 4]: non- conver- gent
6 | Cc1cc(C)c2nc(Nc3nc(CSc4ccc(Cl)cc4)cc(=O)[nH]3)nc(C)c2c1 [11726 + TFA] | NOT ACTIVE | 30.87 | 35.72 | 26.02 | – | –
7 | Cc1ccc(C)c(NC(=S)Nc2ccc(S(=O)(=O)N3c4ccc(F)cc4CCC3C)cc2)c1 (centres unmarked) [AD4-12824] | – | – | – | – | – | MTT assay (first value) ([1]; Table 10, first of x/y(ratio): A431, three day treatment, unit not printed (doses in μM)): Not Active; ICW assay [2]: 25.9501
8 | CC1CCc2cc(F)ccc2N1S(=O)(=O)c1ccc(NC(=S)Nc2cc(Cl)cc(Cl)c2)cc1 (centres unmarked) [AD4-12843] | – | – | – | – | – | MTT assay, % at 2.6 microMolar ([1]; Table 10): 74%; ICW assay [2]: 43.3347
9 | CC(C)C(=O)NC(=S)Nc1ccc(S(=O)(=O)N(C)c2ccccc2)cc1 [AD4-12042] | – | – | – | – | 34.592 | MTT Screen, first value of cell [1, 4]: non- conver- gent
10 | Cc1ccc(C2CC(=O)c3cnc(Nc4nc(C)c5cccc(C)c5n4)nc3C2)cc1 (centres unmarked) [11673 + TFA] | non-convergent | 25.35 | 33.30 | 17.39 | – | –
11 | O=S(=O)(c1ccc(NC(=S)Nc2cccc(C(F)(F)F)c2)cc1)N1CCc2ccccc21 [AD4-12239] | – | – | – | – | – | MTT assay, % at 2.6 microMolar ([1]; Table 10): 58%; ICW assay [2]: 67.8291
12 | CN(c1ccccc1)S(=O)(=O)c1ccc(NC(=S)NC(=O)C2CC2)cc1 [AD4-12164] | – | – | – | – | 45.64 | pIC50 ([1]; Homo sapiens, A-431, first value of 'a/b (c)', taken as A431 cells, read-out: MTT Screen, first value of cell): 4.30; pIC50 ([1]; first value of 'a/b (c)', taken as A431 cells, read-out: MTT Screen, first value of cell): 4.29
13 | COc1ccc(C2CC(=O)c3cnc(Nc4nc(-c5ccccc5)c5ccccc5n4)nc3C2)cc1 (centres unmarked) [11663 + TFA] | non-convergent | 26.73 | 31.73 | 21.73 | – | –
14 | CC1CCc2cc(F)ccc2N1S(=O)(=O)c1ccc(NC(=S)Nc2cccc(C(F)(F)F)c2)cc1 (centres unmarked) [AD4-12846] | – | – | – | – | – | MTT assay, % at 2.6 microMolar ([1]; Table 10): 71%; ICW assay [2]: 71.4924
15 | Cc1ccc2c(C)nc(Nc3nc(C)cc(=O)[nH]3)nc2c1 [11725 + TFA] | – | 28.93 | 26.65 | 31.20 | – | pIC50 ([1]; Homo sapiens, A-431, A431 cells, first value of cell, read-out: MTT Assay IC50(A431/MDBK): A431): 4.89
16 | CN(c1ccccc1)S(=O)(=O)c1ccc(NC(=S)NC(=O)/C=C/c2cccs2)cc1 [AD4-12288] | – | – | – | – | 35.584 | MTT Screen, first value of cell [1, 4]: non- conver- gent
17 | CCCC(=O)NC(=S)Nc1ccc(S(=O)(=O)Nc2cc(C)on2)cc1 [AD4-12267] | – | – | – | – | 30.36 | MTT Screen, first value of cell [1, 4]: non- conver- gent
18 | COC(=O)CCC(=O)NC(=S)Nc1ccc(S(=O)(=O)Nc2cc(C)cc(C)c2)cc1 [AD4-12093] | – | – | – | – | 29.436 | MTT Screen, first value of cell [1, 4]: non- conver- gent
19 | CCOc1cccc2c(C)nc(Nc3nc(C)c(Cc4ccc(C)cc4)c(=O)[nH]3)nc12 [11753 + TFA] | NOT ACTIVE | 44.86 | 42.44 | 47.28 | – | –
